In the supplement of paper PMC11451515:

System: NOMO1
Assay: cell viability relative to DMSO control; higher = less cytotoxic
Settings: 48 h
How it was run: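 Before seeding, each leukemia line was adapted for at least four passages in each medium. NOMO1 or SEM cells (500 cells/well) and P12-Ichikawa cells (1000 cells/well) went into 1536-well plates at 5 μl, then received library compounds in DMSO by pin dosing across 11 threefold concentrations, 47 μM to 0.79 nM. Readout was CellTiter-Glo One luminescence after 48 h at 37°C, and viability is given as a per-plate percentage of DMSO wells, with cell-free wells as background.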

[1] = HPLM + 10% dialyzed FBS, 0.000781 µM
[2] = HPLM + 10% dialyzed FBS, 0.00234 µM
[3] = HPLM + 10% dialyzed FBS, 0.00702 µM
[4] = HPLM + 10% dialyzed FBS, 0.0211 µM
[5] = HPLM + 10% dialyzed FBS, 0.0632 µM
[6] = HPLM + 10% dialyzed FBS, 0.19 µM
[7] = HPLM + 10% dialyzed FBS, 0.569 µM
[8] = HPLM + 10% dialyzed FBS, 1.71 µM
[9] = HPLM + 10% dialyzed FBS, 5.12 µM
[10] = HPLM + 10% dialyzed FBS, 15.4 µM
[11] = HPLM + 10% dialyzed FBS, 46.1 µM
[12] = RPMI 5 mM glucose + 10% FBS, 0.000781 µM
[13] = RPMI 5 mM glucose + 10% FBS, 0.00234 µM
[14] = RPMI 5 mM glucose + 10% FBS, 0.00702 µM
[15] = RPMI 5 mM glucose + 10% FBS, 0.0211 µM
[16] = RPMI 5 mM glucose + 10% FBS, 0.0632 µM
[17] = RPMI 5 mM glucose + 10% FBS, 0.19 µM
[18] = RPMI 5 mM glucose + 10% FBS, 0.569 µM
[19] = RPMI 5 mM glucose + 10% FBS, 1.71 µM
[20] = RPMI 5 mM glucose + 10% FBS, 5.12 µM
[21] = RPMI 5 mM glucose + 10% FBS, 15.4 µM
[22] = RPMI 5 mM glucose + 10% FBS, 46.1 µM
[23] = RPMI 5 mM glucose + 10% dialyzed FBS, 0.000781 µM
[24] = RPMI 5 mM glucose + 10% dialyzed FBS, 0.00234 µM
[25] = RPMI 5 mM glucose + 10% dialyzed FBS, 0.00702 µM
[26] = RPMI 5 mM glucose + 10% dialyzed FBS, 0.0211 µM
[27] = RPMI 5 mM glucose + 10% dialyzed FBS, 0.0632 µM
[28] = RPMI 5 mM glucose + 10% dialyzed FBS, 0.19 µM
[29] = RPMI 5 mM glucose + 10% dialyzed FBS, 0.569 µM
[30] = RPMI 5 mM glucose + 10% dialyzed FBS, 1.71 µM
[31] = RPMI 5 mM glucose + 10% dialyzed FBS, 5.12 µM
[32] = RPMI 5 mM glucose + 10% dialyzed FBS, 15.4 µM
[33] = RPMI 5 mM glucose + 10% dialyzed FBS, 46.1 µM

Structure (SMILES) | cell viability [1] [%] | cell viability [2] [%] | cell viability [3] [%] | cell viability [4] [%] | cell viability [5] [%] | cell viability [6] [%] | cell viability [7] [%] | cell viability [8] [%] | cell viability [9] [%] | cell viability [10] [%] | cell viability [11] [%] | cell viability [12] [%] | cell viability [13] [%] | cell viability [14] [%] | cell viability [15] [%] | cell viability [16] [%] | cell viability [17] [%] | cell viability [18] [%] | cell viability [19] [%] | cell viability [20] [%] | cell viability [21] [%] | cell viability [22] [%] | cell viability [23] [%] | cell viability [24] [%] | cell viability [25] [%] | cell viability [26] [%] | cell viability [27] [%] | cell viability [28] [%] | cell viability [29] [%] | cell viability [30] [%] | cell viability [31] [%] | cell viability [32] [%] | cell viability [33] [%]
Cc1ccc([S+](=O)([O-])Nc2nc3ccccc3nc2Nc2ccc3nsnc3c2)cc1 | 97.3 | 106 | 114 | 104 | 116 | 110 | 111 | 72.5 | 21.3 | 18 | 13.1 | 89.2 | 94.4 | 89.2 | 108 | 101 | 119 | 96.7 | 78.5 | 14 | 11.5 | 7.49 | 84.8 | 88.7 | 106 | 91.8 | 111 | 99.2 | 92.8 | 96.1 | 20.7 | 15.9 | 12.7
Cc1csc(NC(=O)c2sc3nc4c(c(C(F)(F)F)c3c2N)CCC4)n1 | 91.6 | 102 | 97.9 | 101 | 96.7 | 96.4 | 99.4 | 91.4 | 94 | 79.6 | 77.6 | 81.7 | 94.4 | 92.3 | 87.4 | 90.6 | 86 | 91.7 | 88.1 | 87.2 | 78.3 | 85.5 | 83.5 | 91.2 | 93 | 93.1 | 91.3 | 89.4 | 91 | 97.9 | 96.3 | 95.3 | 89.7
CC/1=C(/C(CC(=O)N1)C2=CC=C(C=C2)C(F)(F)F)C(=O)NC3=C(F)C=C4[NH]N=CC4=C3 (stereo not drawn) | 94.2 | 94.5 | 103 | 108 | 104 | 100 | 105 | 98.6 | 96.1 | 33.6 | 11.5 | 92 | 92.7 | 85.7 | 81.2 | 89.6 | 86 | 86.9 | 82.4 | 84.2 | 66.7 | 23.9 | 91.7 | 89.1 | 104 | 96.1 | 95 | 84.7 | 97.5 | 95.3 | 92.1 | 58 | 28
[O-]C(=O)C1=C(C(=C(Cl)C(=C1Cl)Cl)Cl)C/2=C/3\C=C(I)/C(=O)/C(=C3OC4=C2C=C(I)C(=C4I)[O-])I | 101 | 136 | 116 | 122 | 140 | 129 | 143 | 133 | 130 | 113 | 102 |  |  |  |  |  |  |  |  |  |  |  |  |  |  |  |  |  |  |  |  |  | 
COc1cc2c(Nc3ccc(Br)cc3F)ncnc2cc1OCC1CCN(C)CC1 | 93.2 | 93.5 | 88.9 | 90.1 | 75 | 85.5 | 81 | 71 | 74.8 | 31.5 | 69.8 | 79 | 81.7 | 76.5 | 75.5 | 75.4 | 78.1 | 77 | 79.7 | 90.3 | 72.6 | 73 | 82.4 | 79.1 | 82.2 | 88.4 | 88.2 | 85.2 | 86.8 | 70.7 | 88.6 | 41.1 | 84.4
CCC(=O)N[C@H]1CC[C@H](C(=O)N(C)c2ccc(-c3nc4ccccc4o3)cc2)C1 | 85.7 | 106 | 74.4 | 111 | 103 | 92.5 | 97.6 | 98.2 | 101 | 98.5 | 78.3 | 95.8 | 100 | 89.6 | 85.1 | 99.4 | 101 | 97.4 | 94.2 | 86 | 88.6 | 96.9 | 83.8 | 89.2 | 89.8 | 87.8 | 86.1 | 86 | 94.1 | 90.4 | 84.6 | 81 | 84.6
CN(C)CC[C@H](c1ccc(Cl)cc1)c1ccccn1 | 70.4 | 74 | 78.8 | 77.9 | 75.7 | 77.9 | 88.3 | 79.7 | 81 | 78.8 | 87.1 | 75 | 76.5 | 77.1 | 80.3 | 81.4 | 81.2 | 80.7 | 79.6 | 83.2 | 79.9 | 83.7 | 74 | 88.2 | 83.1 | 85.9 | 81.5 | 86.5 | 95.7 | 89.5 | 89.5 | 91 | 82.8
C[S+](=O)([O-])c1ccc(-c2cnc(N)c(C(=O)Nc3ccccc3)n2)cc1 | 113 | 119 | 128 | 126 | 118 | 145 | 123 | 103 | 115 | 52.1 | 56.1 | 110 | 110 | 112 | 110 | 111 | 133 | 113 | 116 | 110 | 87 | 98.4 | 95.6 | 93.1 | 99.7 | 104 | 106 | 113 | 117 | 112 | 110 | 75 | 69.3
O=C(O)CCn1c2c(c3ccccc31)C[C@H](N[S+](=O)([O-])c1ccc(F)cc1)CC2 | 115 | 112 | 120 | 124 | 113 | 109 | 104 | 105 | 116 | 88.3 | 72.2 | 102 | 105 | 108 | 98.2 | 114 | 99 | 99.2 | 98.7 | 94.2 | 102 | 90.5 | 99.2 | 107 | 120 | 102 | 95.8 | 102 | 109 | 98.1 | 103 | 91.8 | 85.9
C[C@@H](NC(=O)c1ncnc(N)c1Cl)c1ncc(C(=O)Nc2cc(C(F)(F)F)c(Cl)cn2)s1 |  |  |  |  |  |  |  |  |  |  |  | 99.4 | 124 | 124 | 121 | 125 | 122 | 138 | 127 | 114 | 103 | 88.3 |  |  |  |  |  |  |  |  |  |  | 
C[C@]12CC[C@H]3[C@@H](C\C=C/4C[C@@H](O)CC[C@]34C)[C@@H]1CCC2=O | 115 | 134 | 117 | 121 | 147 | 117 | 111 | 110 | 103 | 110 | 84.7 | 116 | 126 | 116 | 104 | 116 | 105 | 121 | 112 | 117 | 103 | 98 | 120 | 108 | 115 | 119 | 118 | 106 | 114 | 108 | 103 | 109 | 106
COc1cc([C@H]2Oc3cc([C@H]4Oc5cc(O)cc(O)c5C(=O)[C@@H]4O)ccc3O[C@@H]2CO)ccc1O | 103 | 122 | 119 | 126 | 120 | 123 | 125 | 95.9 | 106 | 119 | 82 | 105 | 124 | 118 | 110 | 114 | 116 | 111 | 100 | 111 | 115 | 103 | 104 | 121 | 115 | 119 | 118 | 100 | 102 | 109 | 106 | 110 | 101
CC(C)c1ccc(Cn2ccc3c4c(N)nc(NC5CC5)nc4ccc32)cc1 | 116 | 114 | 116 | 101 | 126 | 123 | 70.2 | 53.1 | 38.8 | 39.3 | 4.39 | 121 | 116 | 125 | 120 | 120 | 130 | 123 | 113 | 100 | 30.9 | 4.9 | 110 | 109 | 104 | 107 | 133 | 124 | 128 | 84.7 | 50.3 | 49.8 | 3.66
CN1CCN2c3ncccc3Cc3ccccc3C2C1 (stereo not drawn) | 121 | 112 | 141 | 118 | 138 | 114 | 123 | 135 | 33.4 | 98.9 | 108 | 101 | 105 | 110 | 112 | 103 | 103 | 116 | 110 | 29.5 | 98.8 | 112 |  |  |  |  |  |  |  |  |  |  | 
O=C1Nc2ccc(I)cc2/C1=C/c1cc(Br)c(O)c(Br)c1 | 111 | 96.5 | 109 | 106 | 109 | 111 | 98.6 | 99.9 | 118 | 101 | 78.9 | 86.6 | 98.1 | 96.5 | 102 | 96.2 | 100 | 96.8 | 97.6 | 102 | 88.6 | 83 | 95.4 | 93.3 | 90.9 | 92.8 | 92 | 85.9 | 104 | 96.8 | 101 | 95.3 | 76.6
CCN(C(=O)C/1=C(O)/C2=C(C=CC=C2Cl)N(C)C1=O)C3=CC=CC=C3 | 95 | 106 | 97.6 | 99.3 | 87.4 | 84 | 96.6 | 34.9 | 12.5 | 3.29 | 3.67 | 80.5 | 88.8 | 93.4 | 93.8 | 96 | 81 | 90.6 | 43.7 | 15.8 | 2.47 | 2.24 | 96.2 | 89 | 94 | 97.2 | 103 | 83.8 | 91.9 | 53.5 | 22 | 2.48 | 2.14
